Tests used:
Format in all cases: biochemical
[1] = test system: heavy chains of a human antibody (IgG); experiment: Limited proteolysis of human IgG by pepsin, quantified in 12% SDS gels; settings: 0.5 M solute; 0.5 mg/ml antibody, 5 μg/ml pepsin, 37° C., 100 mM sodium acetate pH 3; FIG. 1
Protocol: Limited proteolyses of human IgG were performed at an antibody concentration of 0.5 mg/ml and a pepsin concentration of 5 μg/ml at 37° C. in 100 mM sodium acetate, pH 3. The incubations were performed without additions under 0.5 M ectoine, under 0.5 M hydroxyectoine, and under a mixture of 0.25 M ectoine and 0.25 M hydroxyectoine. The course of the limited proteolyses was quantified subsequent to the incubations in 12% SDS gels under reducing conditions.
Lanes 1, 5, 9: with water; lanes 2, 6, 10: with ectoine; lanes 3, 7, 11: with ectoine and hydroxyectoine; lanes 4, 8, 12; with hydroxyectoine; lanes 1, 2, 3, 4: without incubation; lanes 5, 6, 7, 8: after 15 min of incubation; lanes 9, 10, 11, 12: after 180 min of incubation.

[2] = biological target: pepsin (Homo sapiens, UniProt P0DJD8); experiment: Pepsin activity by spectrophotometry on hydrolysis of a synthetic hexapeptide; settings: substrate Leu-Ser-p-NitroPhe-Nle-Ala-Leu methyl ester; enzyme-kinetic measurements
Protocol: In principle, the experiments allow for two possible explanations. On the one hand, the compatible solutes could inhibit the protease. On the other hand, the solute could prevent the attack of the protease according to the invention for steric reasons through stabilization of the native, more compact conformation of the antibody molecule. Therefore, the effect of ectoine and hydroxyectoine on the activity of pepsin was determined by spectrophotometry on the hydrolysis of a synthetic low-molecular weight hexapeptide [E. Schinaith: Clin. Biochem. 22, 91-98 (1989)]. […] This is a clear indication of the fact that the inhibition of the antibody proteolyses is to be attributed to steric effects according to the invention.

[3] = test system: human IgG; experiment: ELISA residual signal after pepsin pretreatment of human IgG; settings: for Residual signal in ELISA, pretreated antibody human IgG: two hours at 37° C.
Protocol: (§1) The inhibition by ectoine of the proteolysis of antibodies was additionally shown by enzyme-linked immunosorbent assay (ELISA). Thus, 96-well ELISA plates were coated over night with 0.5 μg of human IgG in 100 μl of 0.9% NaCl at 4° C. Subsequently, the plates were washed three times in 50 mM Tris, 0.8% NaCl, 0.020% KCl, pH 7.4, C(T-TBS), and blocked with 200 μl of 1% gelatin in TBS for 2 hours at 37° C. After three washes in T-TBS, an incubation was performed with monoclonal mouse anti-human IgG diluted 1:250 in TBS at 50 μl per well for one hour at 37° C. After four washes with T-TBS, incubation was performed with a peroxidase-conjugated rabbit anti-mouse antibody diluted 1:5000 in TBS at 100 μl per well for one hour at 37° C. After four additional washes, the enzyme reaction was performed by adding 100 μl of substrate per well. As the substrate was used 4.8 mg of phenylene diamine in 3 ml of 0.2 M Na2HPO4, 3 ml of 0.1 M citric acid, 6 ml of water, and 5 μl of H2O2. The reaction was stopped after about 10 minutes by acidification with 100 μl per well of 0.07 M sulfuric acid, and the plates were quantified in an ELISA autoreader. Prior to the experiment, all three protein components were proteolyzed by pepsin for two hours at 37° C. with or without the addition of 0.5 M ectoine. […] The antibody conjugate was not attacked by pepsin. The treatment was performed in an analogous manner with hydroxyectoine, proline and betaine.

[4] = test system: monoclonal mouse anti-human IgG; experiment: ELISA residual signal after pepsin pretreatment of monoclonal mouse antibody; settings: for Residual signal in ELISA, pretreated antibody monoclonal mouse antibody: two hours at 37° C.
Protocol: as §1

[5] = test system: peroxidase-conjugated rabbit anti-mouse antibody; experiment: ELISA residual signal after pepsin pretreatment of peroxidase conjugate; settings: two hours at 37° C.
Protocol: as §1, with “The treatment was performed in an analogous manner with hydroxyectoine, proline and betaine.” left out

[6] = with ectoine (0.5 M) and pepsin
[7] = with ectoine (0.5 M), without pepsin

Chain of pepsin (P0DJD8 63-388): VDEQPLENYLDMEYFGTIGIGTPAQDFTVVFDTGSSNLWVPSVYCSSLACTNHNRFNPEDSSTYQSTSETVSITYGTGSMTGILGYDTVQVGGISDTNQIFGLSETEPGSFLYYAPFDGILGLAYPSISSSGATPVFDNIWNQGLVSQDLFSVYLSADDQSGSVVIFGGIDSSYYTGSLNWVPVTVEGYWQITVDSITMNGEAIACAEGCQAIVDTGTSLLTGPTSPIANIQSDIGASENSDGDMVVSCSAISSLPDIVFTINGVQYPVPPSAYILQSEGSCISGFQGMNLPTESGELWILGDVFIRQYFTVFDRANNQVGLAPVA

Row | Residual signal in ELISA, pretreated antibody peroxidase conjugate [5, 6] [%] | Residual signal in ELISA, pretreated antibody peroxidase conjugate [5, 7] [%] | Compound | hydrolysis of the heavy chain of human IgG by pepsin [1] | inhibition of the protease pepsin [2] | protection of human IgG against proteolytic digest by pepsin ([3]; 0.5 M ectoine, ELISA) | Residual signal in ELISA, pretreated antibody human IgG [3, 6] [%] | Residual signal in ELISA, pretreated antibody human IgG [3, 7] [%] | protection of monoclonal mouse antibody against proteolytic digest by pepsin ([4]; 0.5 M ectoine, ELISA) | Residual signal in ELISA, pretreated antibody monoclonal mouse antibody [4, 6] [%] | Residual signal in ELISA, pretreated antibody monoclonal mouse antibody [4, 7] [%]
1 |  |  | CC1=NC[C@H](O)[C@@H](C(=O)O)N1 [hydroxyectoine] | inhibited significantly | neither ectoine nor hydroxyectoine inhibits the protease |  |  |  |  |  | 
2 | 121 | 98 | CC1=NCC[C@@H](C(=O)O)N1 [ectoine] | inhibited significantly | neither ectoine nor hydroxyectoine inhibits the protease | effectively protected | 91 | 85 | effectively protected | 98 | 97

Reference: patent US20030114358A1, “Use of compatible solutes as inhibitors of the enzymatic decomposition of macromolecular biopolymers” (priority 2000, published 2003)
